Source: patent US9522924B1, “Pyridone derivatives as acid secretion inhibitors and process for preparation thereof” (Emcure Pharmaceuticals Limited, priority 2012, dated 2016)
pIC50: −log10 of the molar value. Like-named read-outs stand apart in the source and are kept apart here.

What was measured:
[1] = test system: Indomethacin-induced gastric ulceration; assay: Indomethacin-induced gastric ulceration model in rats; type: in vivo, female albino Wistar rats; conditions: oral, 1 hour before indomethacin 30 mg/kg p.o.; for ED (effect similar to omeprazole 10 mg/kg): Rattus norvegicus, read-out: Indomethacin-induced ulcer model (dose @ which effect is similar to 10mpk of omeprazole)
Protocol: The anti-ulcer efficacy of various test compounds (I-A-1 to I-A-11, I-B-1 to I-B-3) was assessed in Indomethacin—induced gastric ulceration model in female albino Wistar rats (Bhattacharya S., Banerjee D., Bauri A. K., Chattopadhyay S., Bandyopadhyay S. K. Healing property of the piper betelphenol, allylpyrocatechol against indomethacin-induced stomach ulceration and mechanism of action. World J Gastroenterol., 13(27): 3705-13, 2007; Lee A. Animal models of gastroduodenal ulcer disease. Bailliere's Best Pract. Res. Clinic Gastroenterol., 14(1): 75-96, 2000). The test compounds were administered orally at various doses (0.2, 0.4, 0.8 and 1.6 mg/kg) in comparison to Omeprazole (10 mg/kg) as standard comparator.
Experiments were conducted in overnight fasted healthy female albino Wistar rats maintained at controlled environmental conditions of temperature and humidity with water given ad libitum. Non-steroidal anti-inflammatory drug (NSAID), Indomethacin (30 mg/kg, p.o.) was used to induce gastric ulcer (treatment groups) with a comparative group without indomethacin treatment (negative group). Indomethacin was administered to treatment groups 1 hour after oral treatment with Vehicle (1% CMC), various doses of test compounds (EPPIs) and Omeprazole (10 mg/kg). After 4-6 hours after indomethacin administration, the animals were sacrificed by cervical dislocation and their stomach was dissected out. Various parameters like macroscopic ulcer index, gastric mucus content and gastric acid pH measurements were undertaken. The rat stomachs were cut opened along the greater curvature for macroscopic determination of ulcer index.

H^+/K^+ ATPase [2] = biological target: T1, H^+/K^+ ATPase (Sus scrofa, UniProt P19156); assay: H+K+-ATPase assay (p-NPP to p-NP), enzyme from porcine (pig) fundus; type: biochemical; conditions: for pIC50: enzyme from porcine fundus, pH 6.0, 30 min pre-incubation at 37° C.
T1 construct: using an enzyme isolated from the rabbit or porcine (pig) fundus; from tissue; host or cells: porcine (pig) gastric fundus
Protocol: (§1) H+K+-ATPase Assay Protocol Description:
(§2) Evaluation of the effects of compounds on the activity of the H^+/K^+ ATPase activity was quantified by measuring the formation of para-nitrophenol (p-NP) from para-nitrophenol phosphate (p-NPP) using an enzyme isolated from the rabbit or porcine (pig) fundus.
(§3) The test compound, reference compound or water (control) are pre-incubated for 30 min at 37° C. with the enzyme (5 μg) in a buffer containing 40 mM Hepes/Tris (pH 6.0), 20 mM KCl, 5 mM MgCl2 and 1 mM ouabain. The enzymatic reaction was then initiated by the addition of 2 mM p-NPP.
(§4) The absorbance was measured immediately at k=405 nm using a microplate reader (EnVision, Perkin Elmer). This measurement at t=0 was also used to verify any compound interference with the spectrophotometric detection at the selected wavelength.
(§5) Thereafter, the mixture was incubated for 15 min at 37° C., after which time the reaction is stopped by addition of 0.5 M NaOH and a second measurement is made at the same wavelength (t=15). The enzyme activity is determined by subtracting the signal measured at t=0 from that measured at t=15. The results are expressed as a percent inhibition of the control enzyme activity.
(§6) The standard inhibitory reference compound is omeprazole,
(§7) Bibliographic reference: Dantzig, H., Minor, P. L. Garrigus, J. L., Fukuda, D. S. and Mynderse, J. S., Studies of the mechanism of action of A80915A, a semi-naphtolquinone natural product, as an inhibitor of gastric (H+/K+)-ATPase, Biochem. Pharmacol. (1991), 42: 2019.
(§8) Assay volume and format: 250 μl in 96-well plate
(§9) Compound addition: [100×] solution in solvent, then [10×] solution in water Maximum tolerable DMSO concentration: 1%

H^+/K^+ ATPase [3] = biological target: T2, H^+/K^+ ATPase (Oryctolagus cuniculus, UniProt P27112); assay: H+K+-ATPase assay (p-NPP to p-NP), enzyme from rabbit fundus; type: biochemical; conditions: pH 6.0, 30 min pre-incubation at 37° C.
T2 construct: using an enzyme isolated from the rabbit or porcine (pig) fundus; from tissue; host or cells: rabbit gastric fundus
Protocol: as §1, §2, §3, §4, §5, §6, §7, §8, §9

H^+/K^+ ATPase [4] = biological target: T1, H^+/K^+ ATPase; conditions: literature value (Keeling et al., Biochem Pharmacol 1985); read-out: IC50 (Pig-Porcine); cited from earlier work
H^+/K^+ ATPase [5] = biological target: T2, H^+/K^+ ATPase; conditions: literature value (Scott and Sundell, Eur. J Pharmacol 1985); read-out: IC50 (Rabbit); cited from earlier work

T1 sequence (P19156 2-1034 limits assumed): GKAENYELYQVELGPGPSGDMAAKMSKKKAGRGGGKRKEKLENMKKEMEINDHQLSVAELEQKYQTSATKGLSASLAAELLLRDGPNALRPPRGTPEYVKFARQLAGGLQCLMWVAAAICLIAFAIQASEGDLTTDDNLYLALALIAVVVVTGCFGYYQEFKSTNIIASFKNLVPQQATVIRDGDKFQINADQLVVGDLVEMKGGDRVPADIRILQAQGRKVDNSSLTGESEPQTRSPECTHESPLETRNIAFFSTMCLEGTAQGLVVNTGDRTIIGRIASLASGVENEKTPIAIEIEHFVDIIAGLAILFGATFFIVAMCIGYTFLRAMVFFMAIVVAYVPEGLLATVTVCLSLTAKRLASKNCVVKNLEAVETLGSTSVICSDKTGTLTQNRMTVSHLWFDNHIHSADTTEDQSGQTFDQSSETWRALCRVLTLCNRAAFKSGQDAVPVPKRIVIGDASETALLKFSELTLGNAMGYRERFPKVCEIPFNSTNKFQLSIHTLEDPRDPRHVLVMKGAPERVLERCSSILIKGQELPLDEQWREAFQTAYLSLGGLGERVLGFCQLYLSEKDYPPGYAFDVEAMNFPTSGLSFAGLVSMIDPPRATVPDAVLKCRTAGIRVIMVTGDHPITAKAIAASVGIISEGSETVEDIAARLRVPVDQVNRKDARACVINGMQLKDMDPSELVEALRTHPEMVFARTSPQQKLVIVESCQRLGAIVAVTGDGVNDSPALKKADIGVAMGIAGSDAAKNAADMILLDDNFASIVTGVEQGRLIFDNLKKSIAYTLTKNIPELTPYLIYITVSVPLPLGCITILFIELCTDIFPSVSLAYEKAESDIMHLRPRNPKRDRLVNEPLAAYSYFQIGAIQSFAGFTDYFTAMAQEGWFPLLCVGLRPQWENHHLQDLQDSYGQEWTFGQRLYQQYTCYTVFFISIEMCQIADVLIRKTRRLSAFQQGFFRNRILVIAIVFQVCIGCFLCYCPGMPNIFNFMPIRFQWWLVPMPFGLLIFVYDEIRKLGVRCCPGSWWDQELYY
T1 sequence (P18434 whole entry partner): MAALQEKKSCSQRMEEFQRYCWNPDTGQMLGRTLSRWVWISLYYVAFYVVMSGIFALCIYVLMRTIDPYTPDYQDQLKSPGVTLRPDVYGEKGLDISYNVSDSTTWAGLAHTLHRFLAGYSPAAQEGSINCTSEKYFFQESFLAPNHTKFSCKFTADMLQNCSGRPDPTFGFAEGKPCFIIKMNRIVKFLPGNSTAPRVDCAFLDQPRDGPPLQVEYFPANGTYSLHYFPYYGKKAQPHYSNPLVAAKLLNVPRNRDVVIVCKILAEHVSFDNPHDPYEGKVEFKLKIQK
T2 sequence (P27112 2-1035 limits assumed): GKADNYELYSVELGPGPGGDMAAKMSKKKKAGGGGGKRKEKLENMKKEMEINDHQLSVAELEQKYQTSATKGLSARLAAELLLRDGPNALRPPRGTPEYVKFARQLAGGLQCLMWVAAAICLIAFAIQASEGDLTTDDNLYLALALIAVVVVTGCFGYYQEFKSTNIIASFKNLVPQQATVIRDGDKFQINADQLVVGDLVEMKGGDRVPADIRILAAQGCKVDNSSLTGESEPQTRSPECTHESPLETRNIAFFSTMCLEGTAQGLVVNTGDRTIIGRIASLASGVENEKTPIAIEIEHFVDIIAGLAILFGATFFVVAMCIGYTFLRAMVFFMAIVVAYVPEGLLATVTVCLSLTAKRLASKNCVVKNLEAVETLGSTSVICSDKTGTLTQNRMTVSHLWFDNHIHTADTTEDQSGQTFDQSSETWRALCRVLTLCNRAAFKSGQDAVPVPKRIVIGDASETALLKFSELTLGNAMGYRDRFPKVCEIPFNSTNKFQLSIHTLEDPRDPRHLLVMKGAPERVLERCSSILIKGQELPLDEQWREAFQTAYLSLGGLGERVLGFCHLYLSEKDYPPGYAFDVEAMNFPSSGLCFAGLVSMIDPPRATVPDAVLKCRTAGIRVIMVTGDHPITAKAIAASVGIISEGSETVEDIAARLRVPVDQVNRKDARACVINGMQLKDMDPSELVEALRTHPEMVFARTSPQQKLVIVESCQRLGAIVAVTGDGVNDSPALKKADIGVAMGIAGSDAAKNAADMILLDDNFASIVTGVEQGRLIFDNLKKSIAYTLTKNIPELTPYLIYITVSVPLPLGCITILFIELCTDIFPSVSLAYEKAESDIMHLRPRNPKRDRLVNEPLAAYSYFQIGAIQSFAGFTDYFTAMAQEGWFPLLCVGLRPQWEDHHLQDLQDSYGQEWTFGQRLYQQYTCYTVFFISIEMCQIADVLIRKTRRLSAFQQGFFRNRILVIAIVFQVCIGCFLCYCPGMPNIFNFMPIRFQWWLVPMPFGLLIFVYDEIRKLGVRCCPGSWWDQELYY
T2 sequence (P18597 whole entry partner): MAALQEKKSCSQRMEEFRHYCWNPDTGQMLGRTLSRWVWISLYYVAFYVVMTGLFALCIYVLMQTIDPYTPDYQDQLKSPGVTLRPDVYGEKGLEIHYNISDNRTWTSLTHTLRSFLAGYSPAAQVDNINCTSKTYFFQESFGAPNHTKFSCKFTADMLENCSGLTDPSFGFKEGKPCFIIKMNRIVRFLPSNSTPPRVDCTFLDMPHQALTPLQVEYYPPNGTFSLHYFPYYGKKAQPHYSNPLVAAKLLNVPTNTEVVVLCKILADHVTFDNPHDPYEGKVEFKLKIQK

| pIC50 (H^+/K^+ ATPase [2]) | pIC50 (H^+/K^+ ATPase [3]) | percent inhibition of the control enzyme activity (printed in IC50 (Pig-Porcine) column) (H^+/K^+ ATPase [2]; @ 3-30 uM) [% @ 3-30 uM] | SMILES | ED (effect similar to omeprazole 10 mg/kg) [1] [mg/kg] | Indomethacin-induced ulcer model (dose @ which effect is similar to 10mpk of omeprazole) [1] [mg/kg] | pIC50 (H^+/K^+ ATPase [4]) | pIC50 (H^+/K^+ ATPase [5]) |
| --- | --- | --- | --- | --- | --- | --- | --- |
| 5.89 | 5.92 | – | Cc1cn(-c2nc3cc(F)ccc3[nH]2)c(CSSCc2c(C)c(=O)c(C)cn2-c2nc3cc(F)ccc3[nH]2)c(C)c1=O [I-A-8] | 1.6 | – | – | – |
| 5.70 | 5.96 | – | COc1c(CSSCc2c(OC)c(=O)ccn2-c2nc3ccccc3[nH]2)n(-c2nc3ccccc3[nH]2)ccc1=O [I-A-3] | 1.6 | – | – | – |
| – | – | 45 | COc1ccc2[nH]c(-n3cc(C)c(=O)c(C)c3C[S+]([O-])[S+]([O-])Cc3c(C)c(=O)c(C)cn3-c3nc4nc(OC)ccc4[nH]3)nc2n1 (centres unmarked) [I-B-3, 2-((2-((1,4-dihydro-1-(5-methoxy-1H-imidazo[4,5-b]pyridin-2-yl)-3,5-dimethyl-4-oxopyridin-2-yl)methyl)disulfinyl)methyl)-1-(5-methoxy-1H-imidazo[4,5-b]pyridin-2-yl)-3,5-dimethylpyridin-4(1H)-one] | – | 1.6 | – | – |
| 5.77 | 5.96 | – | COc1c(CSSCc2c(OC)c(=O)ccn2-c2nc3cc(C(F)(F)F)ccc3[nH]2)n(-c2nc3cc(C(F)(F)F)ccc3[nH]2)ccc1=O [I-A-9] | 1.6 | – | – | – |
| – | – | – | COc1ccc2[nH]c([S+]([O-])Cc3ncc(C)c(OC)c3C)nc2c1 (centres unmarked) [Omeprazole, omeprazole] | – | – | 5.41 | 5.40 |
| 5.33 | 5.92 | – | COc1ccc2[nH]c(-n3ccc(=O)c(OC)c3CSSCc3c(OC)c(=O)ccn3-c3nc4cc(OC)ccc4[nH]3)nc2c1 [I-A-7, 2-((2-((1,4-dihydro-3-methoxy-1-(5-methoxy-1H-benzo[d]imidazol-2-yl)-4-oxopyridin-2-yl)methyl)disulfinyl)methyl)-3-methoxy-1-(5-methoxy-1H-benzo[d]imidazol-2-yl)pyridin-4(1H)-one] | 1.6 | – | – | – |
| 5.54 | 5.80 | – | Cc1ccc2[nH]c(-n3cc(C)c(=O)c(C)c3CSSCc3c(C)c(=O)c(C)cn3-c3nc4cc(C)ccc4[nH]3)nc2c1 [I-A-4] | – | – | – | – |
| 5.89 | 6.00 | – | Cc1cn(-c2nc3ccccc3[nH]2)c(CSSCc2c(C)c(=O)c(C)cn2-c2nc3ccccc3[nH]2)c(C)c1=O [I-A-2] | 1.6 | – | – | – |
| 5.74 | 6.00 | – | O=c1ccn(-c2nc3ccccc3[nH]2)c(C[S+]([O-])[S+]([O-])Cc2cc(=O)ccn2-c2nc3ccccc3[nH]2)c1 (centres unmarked) [I-A-1, 2-((2-((1-(1H-benzo[d]imidazol-2-yl)-1,4-dihydro-4-oxopyridin-2-yl)methyl)disulfinyl)methyl)-1-(1H-benzo[d]imidazol-2-yl)pyridin-4(1H)-one] | – | 1.6 | – | – |
| 5.64 | 5.89 | – | COc1c(CSSCc2c(OC)c(=O)ccn2-c2nc3cc(C)ccc3[nH]2)n(-c2nc3cc(C)ccc3[nH]2)ccc1=O [I-A-5] | 1.6 | – | – | – |
| 5.08 | 5.70 | – | COc1ccc2[nH]c(-n3ccc(=O)c(OC)c3CSSCc3c(OC)c(=O)ccn3-c3nc4nc(OC)ccc4[nH]3)nc2n1 [I-B-2] | 1.6 | – | – | – |
| 5.48 | 5.82 | – | COc1c(CSSCc2c(OC)c(=O)ccn2-c2nc3cc(OC(F)F)ccc3[nH]2)n(-c2nc3cc(OC(F)F)ccc3[nH]2)ccc1=O [I-A-11] | 1.6 | – | – | – |
| 4.85 | 5.55 | – | Cc1cn(-c2nc3ncccc3[nH]2)c(CSSCc2c(C)c(=O)c(C)cn2-c2nc3ncccc3[nH]2)c(C)c1=O [I-B-1, 2-((2-((1,4-dihydro-1-(1H-imidazo[4,5-b]pyridin-2-yl)-3,5-dimethyl-4-oxopyridin-2-yl)methyl)disulfinyl)methyl)-1-(1H-imidazo[4,5-b]pyridin-2-yl)-3,5-dimethylpyridin-4(1H)-one] | 1.6 | – | – | – |
| 5.39 | 5.89 | – | COc1ccc2[nH]c(-n3cc(C)c(=O)c(C)c3CSSCc3c(C)c(=O)c(C)cn3-c3nc4cc(OC)ccc4[nH]3)nc2c1 [I-A-6] | – | – | – | – |
